How the values were obtained:
healthy volunteer [1] = test: Daily 0-2 sexual desire score in a single-subject sequential four-treatment study (4 weeks each); format: in vivo, human; conditions: for Sexual desire response (in words): overall
Protocol: (§1) Method. […] (1) Treatment B: […] IR Trz 50 mg t.i.d.; […] Bup 75 mg t.i.d. A washout of 1-4 weeks occurred between each treatment. […] Sexual events were counted, and three domains (sexual arousal, orgasm, and overall satisfaction with the event) were scored. Each of the sexual event variables was converted to a simple patient's global impression of improvement (PGI; improved or not improved today compared to pre-treatment baseline). […] Bup is already recommended as a treatment for HSDD; Trz is not. Thus, Fisher's exact test was applied post-hoc to the PGIs for Treatment B vs. Treatment Llow (Llow) and vs. […] Upon the advice of the independent researcher the subject dichotomized their sexual event results in a simple daily patient's global impression of improvement: improved or not improved today (compared to pre-treatment baseline). The independent researcher, when told that the results were positive for the subject but before seeing any of the data, decided to apply categorical tests to the most obvious comparisons between treatments: for the first two weeks, the second two weeks, and for all four weeks of treatment, low-dose combination of bupropion plus trazodone vs. corresponding dose of bupropion; and high-dose the combination of bupropion plus trazodone vs. same dose of trazodone. The test used for the desire score was a two-tailed paired t test. The test used for the two-category variables was an online two-tailed Fisher's exact test. Both were from the website graphpad.com.*

healthy volunteer [2] = test: Patient's global impression of improvement (PGI) for sexual events: arousal, orgasm, overall satisfaction; same single-subject study; format: in vivo, human
Protocol: as §1

Compound: CC(NC(C)(C)C)C(=O)c1cccc(Cl)c1 (racemic) [Bup, (±)-2-(tert-Butylamino)-1-(3-chlorophenyl)propan-1-one]
- Sexual desire response (in words) (healthy volunteer [1]): intermediate
- 0-2 Daily Desire Score, % of max. (max. = 28) (healthy volunteer [1]; wks 1-2): 32%
- 0-2 Daily Desire Score, % of max. (max. = 28) (healthy volunteer [1]; wks 3-4): 50%
- Improvements in arousal, % of sexual events (healthy volunteer [2]; third and fourth weeks of use): 0%
- Improvements in arousal, % of sexual events (healthy volunteer [2]; total for all four weeks): 20%
- Improvements in arousal, % of sexual events (healthy volunteer [2]; weeks 1-2): 40%
- Improvements in arousal, fraction of sexual events (healthy volunteer [2]; weeks 1-2): ⅖

Compound: O=c1n(CCCN2CCN(c3cccc(Cl)c3)CC2)nc2ccccn12 [Trz, 2-{3-[4-(3-chlorophenyl)piperazin-1-yl]propyl}[1,2,4]triazolo[4,3-a]pyridin-3(2H)-one]
- Sexual desire response (in words) (healthy volunteer [1]): low
- 0-2 Daily Desire Score, % of max. (max. = 28) (healthy volunteer [1]; wks 1-2): 7%
- 0-2 Daily Desire Score, % of max. (max. = 28) (healthy volunteer [1]; wks 3-4): 0, 0%

Reference: US20140038985A1, “TREATMENT REGIMENS” (S1 Pharmaceuticals, Inc., priority 2011, published 2014)
